Numbers after ± are expanded uncertainties.
Details: Liquid, Ebulliometric method (Recirculating still)

Row | vapor or sublimation pressure (273.15 K) | vapor or sublimation pressure (283.15 K) | vapor or sublimation pressure (293.15 K) | vapor or sublimation pressure (303.15 K) | vapor or sublimation pressure (313.15 K) | vapor or sublimation pressure (323.15 K) | SMILES
1 | 264 ± 2 kPa | 372 ± 2 kPa | 512 ± 3 kPa | 689 ± 3 kPa | 909 ± 4 kPa | 1176 ± 5 kPa | CC(F)F [1,1-difluoroethane]
2 | 104 ± 2 kPa | 150 ± 2 kPa | 208 ± 2 kPa | 284 ± 2 kPa | 378 ± 3 kPa | 495 ± 3 kPa | CCCC [butane]

Source: the NIST ThermoML archive (doi:10.1016/j.fluid.2007.07.010)
